Experimental data from article PMC9254107, “The Toxoplasma glucan phosphatase TgLaforin utilizes a distinct functional mechanism that can be exploited by therapeutic inhibitors” (The Journal of Biological Chemistry, 2022).

What was measured:
TgLaforin [1] = target: T1, TgLaforin (Toxoplasma gondii, UniProt S8F2K7); assay: Malachite green phosphatase assay, phosphate release from solubilized potato amylopectin; assay type: biochemical
T1 sequence (S8F2K7 1-523): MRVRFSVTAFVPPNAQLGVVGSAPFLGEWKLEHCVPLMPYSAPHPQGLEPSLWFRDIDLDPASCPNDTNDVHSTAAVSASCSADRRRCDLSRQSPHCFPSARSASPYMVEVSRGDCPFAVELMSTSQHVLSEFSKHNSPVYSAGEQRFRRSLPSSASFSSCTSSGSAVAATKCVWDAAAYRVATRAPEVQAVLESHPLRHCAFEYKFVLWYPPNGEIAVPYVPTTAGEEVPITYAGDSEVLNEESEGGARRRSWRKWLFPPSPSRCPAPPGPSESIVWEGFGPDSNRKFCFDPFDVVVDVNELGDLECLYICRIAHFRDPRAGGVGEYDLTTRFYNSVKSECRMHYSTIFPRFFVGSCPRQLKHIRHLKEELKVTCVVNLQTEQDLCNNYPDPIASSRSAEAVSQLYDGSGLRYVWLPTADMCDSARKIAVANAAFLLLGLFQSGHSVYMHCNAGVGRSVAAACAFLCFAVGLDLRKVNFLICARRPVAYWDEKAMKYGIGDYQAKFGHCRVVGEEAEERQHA
Procedure: Release of phosphate from potato amylopectin was determined as done previously ([23], [24], [42], [93]) with the following modifications. Briefly, phosphate release was monitored using the PiColorLock Phosphate Detection Reagent (Novus Biologicals), a malachite green–based assay. For time course assays, 5 nM recombinant protein was incubated with 90 μg solubilized potato amylopectin (Sigma-Aldrich), supplied as a powder; solubilized at a stock concentration of 5 mg/ml using alcohol/alkaline method (also referred to as the “Roach method” in Ref. ([93])) in phosphatase buffer in a final volume of 80 μl at pH 6.5. […] After 5 min, 8 μl stabilizer solution (0.1 initial reaction volume) was added, and reaction was allowed to develop for 30 min at r.t. before the absorbance of each reaction was measured at 635 nm using a Synergy HTX Multi-Mode Reader (BioTek). Absorbance was converted to pmol Pi release using a Pi absorbance standard curve. […]
(§1) L319-M21-M49 stock solutions were prepared by resuspending the inhibitor in DMSO at a concentration of 20 mM. […] The efficacy of L319-M21-M49 against various phosphatases was determined using the assay conditions described above. […] All reported uncertainties in IC50 values were calculated and presented as standard deviation from the mean of at least three independent replicates, each consisting of three technical replicates. […]

TgLaforin [2] = target: T1, TgLaforin; assay: Radiolabeled (33P) starch phosphatase assay; assay type: biochemical; conditions: 33P-labeled insoluble starch
Procedure: Position-dependent phosphate release from ^33P-labeled starch was performed as previously described ([36], [41], [42], [43]). The substrate for this assay was generated by phosphorylating phosphate-free Arabidopsis sex1-3 starch with β^33P-labeled ATP (Hartmann Analytic) at the C6 and C3 positions sequentially. The starch granules were phosphorylated at the C6 position using purified recombinant StGWD enzyme. Next, the granules were phosphorylated at the C3 position using purified recombinant AtPWD enzyme.
To determine the site-specificity of TgLaforin, TgLaforin (1.3 nM) was incubated separately with 0.6 mg both C6- and C3-^33P-labeled starch in phosphatase buffer (pH 6.5) containing 1 mg/ml bovine serum albumin in a final volume of 150 μl. […] The amount of phosphate released from each starch suspension was quantified by measuring counts per minute (CPM) of the supernatant on a 1900 TR liquid scintillation counter (Packard). […]
as §1

TgLaforin [3] = target: T1, TgLaforin; assay: Library screening at 10 μM; assay type: biochemical
TgLaforin [4] = target: T1, TgLaforin; assay: pNPP phosphatase assay
PTP1B = target: T2, PTP1B (Homo sapiens, UniProt P18031); assay: Library screening at 10 μM; conditions: read-out: inhibition of PTP1B
T2 sequence (P18031 1-435): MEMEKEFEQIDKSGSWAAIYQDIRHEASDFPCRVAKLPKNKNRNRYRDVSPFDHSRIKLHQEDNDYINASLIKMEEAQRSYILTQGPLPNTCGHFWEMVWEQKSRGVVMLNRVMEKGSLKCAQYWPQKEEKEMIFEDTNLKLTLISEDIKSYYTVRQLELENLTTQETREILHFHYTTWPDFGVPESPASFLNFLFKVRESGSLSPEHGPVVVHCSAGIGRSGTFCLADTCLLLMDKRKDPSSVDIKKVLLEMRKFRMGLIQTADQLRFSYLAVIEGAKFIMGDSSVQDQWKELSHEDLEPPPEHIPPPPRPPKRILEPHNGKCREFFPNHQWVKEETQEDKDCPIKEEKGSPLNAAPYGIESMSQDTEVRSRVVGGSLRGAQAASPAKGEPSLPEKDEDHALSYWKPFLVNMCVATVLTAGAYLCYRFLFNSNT

VHR = VHR (Homo sapiens, UniProt P51452); assay: Library screening at 10 μM; conditions: read-out: inhibition of VHR
Chain of VHR (P51452 whole entry, species assumed): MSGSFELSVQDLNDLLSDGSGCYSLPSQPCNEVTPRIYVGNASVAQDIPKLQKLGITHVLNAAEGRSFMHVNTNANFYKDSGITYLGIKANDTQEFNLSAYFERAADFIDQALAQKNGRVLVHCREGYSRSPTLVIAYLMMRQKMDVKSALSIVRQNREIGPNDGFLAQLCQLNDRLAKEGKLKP

TgCBM = TgCBM (Toxoplasma gondii, UniProt S8F2K7); assay: Differential scanning fluorimetry carbohydrate binding
Procedure: We next analyzed TgCBM using size-exclusion chromatography coupled with multiangle light scattering (SEC-MALS) to define its oligomerization state. […] To define TgCBM carbohydrate binding, we utilized differential scanning fluorimetry (DSF) ([53], [54]). In the presence of a carbohydrate, an increase in Tm is associated with increased protein stability due to protein–ligand interaction. We incubated TgCBM with the linear oligosaccharide maltohexaose and observed a robust dose-dependent stabilization of TgCBM with an Kd,app = 20 ± 4 mM (Fig. 3E).

TgCBM K206A = assay: as above; conditions: DSF
TgCBM W278A = assay: as above; conditions: DSF

Q: Which results are given for `O=C(Nc1ccc(Oc2ccccc2)cc1)C(=O)Nc1ccccc1NC(=O)C(c1ccccc1)S(=O)(=O)O` (stereo not drawn) [L319-21-M49, 2-oxo-2-((2-(2-oxo-2-((4-phenoxyphenyl)amino)acetamido)phenyl)amino)-1-phenylethanesulfonic acid]?
A: IC50 (TgLaforin [1]): 5.1 ± 0.4 µM; IC50 (TgLaforin [2]; C3, read-out: IC50 phosphate release from C3 position of starch): 6.7 ± 0.1 µM; IC50 (TgLaforin [2]; C6, read-out: IC50 phosphate release from C6 position of starch): 6.5 ± 1.4 µM; inhibition at 10 µM (TgLaforin [3]): > 90%; IC50 (TgLaforin [4]): 1.5 ± 0.3 µM; specificity for TgLaforin over other phosphatases (TgLaforin [4]; pNPP assay, other phosphatases VHR, PTP1B, CIP): > 100 fold; mechanism of inhibition (Lineweaver-Burk plot) (TgLaforin [4]; pNPP substrate): competitive inhibitor; inhibition at 10 µM (PTP1B): < 10%; inhibition at 10 µM (VHR): < 10%

Q: What does the source list for `OC[C@H]1O[C@H](O[C@H]2[C@H](O)[C@@H](O)[C@@H](O[C@H]3[C@H](O)[C@@H](O)[C@@H](O[C@H]4[C@H](O)[C@@H](O)[C@@H](O[C@H]5[C@H](O)[C@@H](O)[C@@H](O[C@H]6[C@H](O)[C@@H](O)C(O)O[C@@H]6CO)O[C@@H]5CO)O[C@@H]4CO)O[C@@H]3CO)O[C@@H]2CO)[C@H](O)[C@@H](O)[C@@H]1O` (stereo partly drawn) [maltohexaose]?
A: Kd (TgCBM): 20000 ± 4000 µM; binding to K206A mutant (TgCBM K206A): neither mutant was able to bind; binding to W278A mutant (TgCBM W278A): neither mutant was able to bind
